Results from ChEMBL document CHEMBL1201862, “PubChem BioAssay data set” (2004).
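Exposure lasted 48 hours, with cells grown in 96-well plates and compounds tested at five concentrations. The concentration for 50% growth inhibition is given as GI50.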 The source made the active and inactive calls. No stated cut-off is given here; in the data, active = GI50 up to about 1.1 µM and inactive = higher.

What was measured:
Assay in all cases: NCI-60 cell line screen, 48 h
786-0 = test system: 786-0
A498 = test system: A498
A549 = test system: A549
CAKI-1 = test system: CAKI-1
CCRF-CEM = test system: CCRF-CEM
COLO 205 = test system: COLO 205
DLD-1 = test system: DLD-1
DMS-114 = test system: DMS-114
DMS-273 = test system: DMS-273
EKVX = test system: EKVX
HCC 2998 = test system: HCC 2998
HCT-116 = test system: HCT-116
HL-60 = test system: HL-60
HOP-62 = test system: HOP-62
HOP-92 = test system: HOP-92
HT-29 = test system: HT-29
IGROV-1 = test system: IGROV-1
K562 = test system: K562
KM12 = test system: KM12
LXFL 529 = test system: LXFL 529
M14 = test system: M14
M19-MEL = test system: M19-MEL
MOLT-4 = test system: MOLT-4
Malme-3M = test system: Malme-3M
NCI-H226 = test system: NCI-H226
NCI-H23 = test system: NCI-H23
NCI-H522 = test system: NCI-H522
OVCAR-3 = test system: OVCAR-3
OVCAR-4 = test system: OVCAR-4
OVCAR-8 = test system: OVCAR-8
RPMI-8226 = test system: RPMI-8226
RXF 631 = test system: RXF 631
SF-268 = test system: SF-268
SF-295 = test system: SF-295
SF-539 = test system: SF-539
SK-MEL-28 = test system: SK-MEL-28
SK-MEL-2 = test system: SK-MEL-2
SK-MEL-5 = test system: SK-MEL-5
SK-OV-3 = test system: SK-OV-3
SN12C = test system: SN12C
SNB-19 = test system: SNB-19
SNB-75 = test system: SNB-75
SNB-78 = test system: SNB-78
SR = test system: SR
SW-620 = test system: SW-620
TK-10 = test system: TK-10
UACC-257 = test system: UACC-257
UACC-62 = test system: UACC-62
UO-31 = test system: UO-31
XF498 = test system: XF498
ACHN = test system: ACHN
HCT-15 = test system: HCT-15
KM-20L2 = test system: KM-20L2
LOX IMVI = test system: LOX IMVI
NCI-H460 = test system: NCI-H460
OVCAR-5 = test system: OVCAR-5
RXF 393 = test system: RXF 393
U-251 = test system: U-251

For `CCCCCCCCCCCCCCCCCC(=O)NCC(COP(=O)(O)O)OCC` (stereo not drawn), the GI50 (786-0) was 30.7 µM (inactive), the GI50 (A498) was 24.3 µM (inactive) and the GI50 (A549) was 31.1 µM (inactive). The GI50 (CAKI-1) was 31.2 µM (inactive), the GI50 (CCRF-CEM) was > 100 µM (inactive) and the GI50 (COLO 205) was > 100 µM (inactive). For the same molecule, the GI50 (DLD-1) was > 100 µM (inactive), the GI50 (DMS-114) was 33.6 µM (inactive) and the GI50 (DMS-273) was 77.1 µM (inactive). For the same molecule, the GI50 (EKVX) was 46.3 µM (inactive), the GI50 (HCC 2998) was > 100 µM (inactive) and the GI50 (HCT-116) was 58.6 µM (inactive). For the same molecule, the GI50 (HL-60) was > 100 µM (inactive), the GI50 (HOP-62) was 22 µM (inactive) and the GI50 (HOP-92) was 13.7 µM (inactive). For the same molecule, the GI50 (HT-29) was 68.7 µM (inactive), the GI50 (IGROV-1) was 49.9 µM (inactive) and the GI50 (K562) was > 100 µM (inactive). For the same molecule, the GI50 (KM12) was 25 µM (inactive), the GI50 (LXFL 529) was > 100 µM (inactive) and the GI50 (M14) was 77.1 µM (inactive). For the same molecule, the GI50 (M19-MEL) was > 100 µM (inactive), the GI50 (MOLT-4) was > 100 µM (inactive) and the GI50 (Malme-3M) was > 100 µM (inactive). For the same molecule, the GI50 (NCI-H226) was 27.7 µM (inactive), the GI50 (NCI-H23) was 14.1 µM (inactive) and the GI50 (NCI-H522) was 29.7 µM (inactive). For the same molecule, the GI50 (OVCAR-3) was > 100 µM (inactive), the GI50 (OVCAR-4) was > 100 µM (inactive) and the GI50 (OVCAR-8) was 36.6 µM (inactive). The GI50 (RPMI-8226) was > 100 µM (inactive), the GI50 (RXF 631) was 25.8 µM (inactive) and the GI50 (SF-268) was 22.3 µM (inactive). For the same molecule, the GI50 (SF-295) was 18.5 µM (inactive), the GI50 (SF-539) was 43.6 µM (inactive) and the GI50 (SK-MEL-28) was > 100 µM (inactive). For the same molecule, the GI50 (SK-MEL-2) was 38.1 µM (inactive), the GI50 (SK-MEL-5) was > 100 µM (inactive) and the GI50 (SK-OV-3) was 34.9 µM (inactive). For the same molecule, the GI50 (SN12C) was 22 µM (inactive), the GI50 (SNB-19) was 47.2 µM (inactive) and the GI50 (SNB-75) was 26.1 µM (inactive). The GI50 (SNB-78) was 22.5 µM (inactive), the GI50 (SR) was > 100 µM (inactive) and the GI50 (SW-620) was > 100 µM (inactive). The GI50 (TK-10) was 49.2 µM (inactive), the GI50 (UACC-257) was > 100 µM (inactive) and the GI50 (UACC-62) was 54.3 µM (inactive). The GI50 (UO-31) was 34.1 µM (inactive) and the GI50 (XF498) was 51.8 µM (inactive).

For `NC(=O)COc1ccccc1`, the GI50 (786-0) was > 100 µM (inactive), the GI50 (A498) was > 100 µM (inactive) and the GI50 (A549) was > 100 µM (inactive). The GI50 (ACHN) was > 100 µM (inactive), the GI50 (CAKI-1) was > 100 µM (inactive) and the GI50 (CCRF-CEM) was > 100 µM (inactive). For the same molecule, the GI50 (COLO 205) was > 100 µM (inactive), the GI50 (DLD-1) was > 100 µM (inactive) and the GI50 (DMS-114) was > 100 µM (inactive). The GI50 (DMS-273) was > 100 µM (inactive), the GI50 (EKVX) was > 100 µM (inactive) and the GI50 (HCC 2998) was > 100 µM (inactive). For the same molecule, the GI50 (HCT-116) was > 100 µM (inactive), the GI50 (HCT-15) was > 100 µM and the GI50 (HL-60) was > 100 µM (inactive). The GI50 (HOP-62) was > 100 µM (inactive), the GI50 (HOP-92) was > 100 µM (inactive) and the GI50 (HT-29) was > 100 µM (inactive). For the same molecule, the GI50 (IGROV-1) was > 100 µM (inactive), the GI50 (K562) was > 100 µM (inactive) and the GI50 (KM-20L2) was > 100 µM (inactive). The GI50 (KM12) was > 100 µM (inactive), the GI50 (LOX IMVI) was > 100 µM (inactive) and the GI50 (LXFL 529) was > 100 µM (inactive). For the same molecule, the GI50 (M14) was > 100 µM (inactive), the GI50 (M19-MEL) was > 100 µM (inactive) and the GI50 (MOLT-4) was > 100 µM (inactive). The GI50 (Malme-3M) was > 100 µM (inactive), the GI50 (NCI-H226) was > 100 µM (inactive) and the GI50 (NCI-H23) was > 100 µM (inactive). For the same molecule, the GI50 (NCI-H460) was > 100 µM (inactive), the GI50 (NCI-H522) was > 100 µM (inactive) and the GI50 (OVCAR-3) was > 100 µM (inactive). The GI50 (OVCAR-4) was > 100 µM (inactive), the GI50 (OVCAR-5) was > 100 µM (inactive) and the GI50 (OVCAR-8) was > 100 µM (inactive). The GI50 (RPMI-8226) was > 100 µM (inactive), the GI50 (RXF 393) was > 100 µM (inactive) and the GI50 (RXF 631) was > 100 µM (inactive). For the same molecule, the GI50 (SF-268) was > 100 µM (inactive), the GI50 (SF-295) was > 100 µM (inactive) and the GI50 (SF-539) was > 100 µM (inactive). The GI50 (SK-MEL-28) was > 100 µM (inactive), the GI50 (SK-MEL-2) was > 100 µM (inactive) and the GI50 (SK-MEL-5) was > 100 µM (inactive). For the same molecule, the GI50 (SK-OV-3) was > 100 µM (inactive), the GI50 (SN12C) was > 100 µM (inactive) and the GI50 (SNB-19) was > 100 µM (inactive). For the same molecule, the GI50 (SNB-75) was > 100 µM (inactive), the GI50 (SNB-78) was > 100 µM (inactive) and the GI50 (SR) was > 100 µM (inactive). The GI50 (SW-620) was > 100 µM (inactive), the GI50 (TK-10) was > 100 µM (inactive) and the GI50 (U-251) was > 100 µM (inactive). The GI50 (UACC-257) was > 100 µM (inactive), the GI50 (UACC-62) was > 100 µM (inactive) and the GI50 (UO-31) was > 100 µM (inactive). The GI50 (XF498) was > 100 µM (inactive).
